Measured values taken from the NIST ThermoML archive (doi:10.1021/je800110r).

Conditions: Liquid, Vibrating tube method

CCCCCCCCCC [decane]
Conditions | mass density [kg/m3]
323.15 K, 32682 kPa | 732.9
323.15 K, 32750 kPa | 733
323.15 K, 32786 kPa | 733
323.15 K, 32870 kPa | 732.9
323.15 K, 33409 kPa | 733.4
323.15 K, 33442 kPa | 733.3
323.15 K, 33464 kPa | 733.5
323.15 K, 33482 kPa | 733.3
323.15 K, 33530 kPa | 733.5
323.15 K, 33575 kPa | 733.5
323.15 K, 33593 kPa | 733.4
323.15 K, 34001 kPa | 733.8
323.15 K, 34025 kPa | 733.8
323.15 K, 34059 kPa | 733.8
323.15 K, 34079 kPa | 733.8
323.15 K, 34114 kPa | 733.9
323.15 K, 34138 kPa | 733.8
323.15 K, 34175 kPa | 734
323.15 K, 34199 kPa | 733.8
323.15 K, 34237 kPa | 733.8
323.15 K, 34400 kPa | 734
323.15 K, 34425 kPa | 734.1
323.15 K, 34440 kPa | 734
323.15 K, 34451 kPa | 734.1
323.15 K, 34456 kPa | 734
323.15 K, 34460 kPa | 734.2
323.15 K, 34463 kPa | 734.1
323.15 K, 34464 kPa | 734.1
323.16 K, 356 kPa | 707.2
323.16 K, 379 kPa | 707.1
323.16 K, 400 kPa | 707.2
323.16 K, 417 kPa | 707.2
323.16 K, 438 kPa | 707.2
323.16 K, 464 kPa | 707.2
323.16 K, 488 kPa | 707.3
323.16 K, 517 kPa | 707.3
323.16 K, 541 kPa | 707.3
323.16 K, 575 kPa | 707.3
323.16 K, 612 kPa | 707.4
323.16 K, 646 kPa | 707.4
323.16 K, 728 kPa | 707.6
323.16 K, 944 kPa | 707.8
323.16 K, 1001 kPa | 707.8
323.16 K, 1024 kPa | 707.7
323.16 K, 1047 kPa | 707.8
323.16 K, 1070 kPa | 707.8
323.16 K, 1102 kPa | 707.8
323.16 K, 1211 kPa | 708
323.16 K, 1244 kPa | 708
323.16 K, 1280 kPa | 708.1
323.16 K, 1314 kPa | 708
323.16 K, 1337 kPa | 708.2
323.16 K, 1362 kPa | 708.2
323.16 K, 1381 kPa | 708.2
323.16 K, 1405 kPa | 708.1
323.16 K, 1427 kPa | 708.2
323.16 K, 1453 kPa | 708.3
323.16 K, 1479 kPa | 708.2
323.16 K, 1503 kPa | 708.2
323.16 K, 1524 kPa | 708.3
323.16 K, 1553 kPa | 708.2
323.16 K, 1582 kPa | 708.2
323.16 K, 1608 kPa | 708.4
323.16 K, 1630 kPa | 708.4
323.16 K, 1671 kPa | 708.3
323.16 K, 1694 kPa | 708.4
323.16 K, 1723 kPa | 708.5
323.16 K, 1748 kPa | 708.5
323.16 K, 1778 kPa | 708.5
323.16 K, 1812 kPa | 708.4
323.16 K, 1848 kPa | 708.5
323.16 K, 1871 kPa | 708.5
323.16 K, 1898 kPa | 708.7
323.16 K, 1945 kPa | 708.7
323.16 K, 1973 kPa | 708.7
323.16 K, 2008 kPa | 708.6
323.16 K, 2050 kPa | 708.7
323.16 K, 2081 kPa | 708.7
323.16 K, 2113 kPa | 708.8
323.16 K, 2151 kPa | 708.7
323.16 K, 2201 kPa | 708.9
323.16 K, 2247 kPa | 708.9
323.16 K, 2281 kPa | 708.8
323.16 K, 2332 kPa | 708.9
323.16 K, 2405 kPa | 709.1
323.16 K, 2718 kPa | 709.4
323.16 K, 2738 kPa | 709.3
323.16 K, 2755 kPa | 709.4
323.16 K, 2772 kPa | 709.4
323.16 K, 2789 kPa | 709.5
323.16 K, 2809 kPa | 709.5
323.16 K, 2845 kPa | 709.6
333.14 K, 21082 kPa | 717.8
333.14 K, 21129 kPa | 717.8
333.14 K, 26540 kPa | 722.1
333.14 K, 26569 kPa | 722.1
333.14 K, 26609 kPa | 722
333.14 K, 26648 kPa | 722.2
333.14 K, 26696 kPa | 722.2
333.14 K, 26733 kPa | 722.2
333.14 K, 26773 kPa | 722.3
333.14 K, 26813 kPa | 722.3
333.14 K, 26859 kPa | 722.4
333.14 K, 26912 kPa | 722.4
333.14 K, 26958 kPa | 722.4
333.14 K, 26993 kPa | 722.4
333.14 K, 27039 kPa | 722.4
333.14 K, 27087 kPa | 722.4
333.14 K, 27129 kPa | 722.6
333.14 K, 27171 kPa | 722.5
333.14 K, 27219 kPa | 722.5
333.14 K, 30020 kPa | 724.6
333.14 K, 30058 kPa | 724.6
333.14 K, 30100 kPa | 724.7
333.14 K, 30134 kPa | 724.7
333.14 K, 30168 kPa | 724.7
333.14 K, 30197 kPa | 724.7
333.14 K, 30227 kPa | 724.8
333.14 K, 30265 kPa | 724.9
333.14 K, 30291 kPa | 724.8
333.14 K, 30312 kPa | 724.8
333.14 K, 30350 kPa | 724.9
333.14 K, 30376 kPa | 724.8
333.14 K, 30402 kPa | 724.9
333.14 K, 30432 kPa | 724.9
333.14 K, 30458 kPa | 724.9
333.14 K, 30480 kPa | 725
333.14 K, 30502 kPa | 725
333.14 K, 30528 kPa | 725
333.14 K, 30566 kPa | 725
333.14 K, 30592 kPa | 724.9
333.14 K, 30623 kPa | 725
333.14 K, 30654 kPa | 725.2
333.14 K, 30689 kPa | 725.2
333.14 K, 31374 kPa | 725.5
333.14 K, 31402 kPa | 725.6
333.14 K, 31439 kPa | 725.6
